The subject of the assay is HFD/L-NAME mice. Nature of the assay: HFD/L-NAME HFpEF mouse model, TYA-11018 versus Empagliflozin for 9 weeks. It is filed as in vivo. Conditions: TYA-11018 15 mg/kg, Empagliflozin 10 mg/kg. As to the method: After HFpEF phenotypes were established, mice received 15 mg/kg TYA-11018 or 10 mg/kg Empagliflozin, or vehicle orally once daily for 9 weeks. Health monitoring was performed weekly with body weights recorded. Glucose tolerance test was performed after 1st dose. Cardiac function was recorded by echocardiography after treatment for 9 weeks. End diastolic pressure (EDP) was measured by PV-Loop at terminal at 9 weeks after dosing.
Animals: Cohort of mice with established HFpEF phenotypes and age/sex matched wild type controls were used for dosing study. […] After acclimation for 1 week, one group of mice was fed with high fat diet containing 0.07% L-NAME (LabDiet 5G5V, St Louis, MO) for 15 weeks. The control group of mice were fed with normal chow (LabDiet 5053, St Louis, MO). […] Animals were housed in an animal research facility in accordance with the National Research Council of the National Academies guidelines for the care and use of laboratory animals.
A second group of mice was fed with standard chow for controls.
Transthoracic echocardiography was performed using a VisualSonics Vevo 2100 system equipped with MS400 transducer (Visual Sonics, Toronto, ON). LVEF and other indices of systolic function were obtained from short-axis M-mode scans at the midventricular level, as indicated by the presence of papillary muscles, in conscious, gently restrained mice. […]
Intraperitoneal glucose-tolerance tests were performed by injection of glucose (2 g/kg in saline) after 6 hour fasting (from 7 a.m. to 1 p.m.). Tail blood glucose levels (mg/dL) were measured by AimStrip Plus blood glucose strips used with the AimStrip Plus blood glucose monitoring system (Germaine Laboratories, San Antonio, TX) at 0 (baseline, before glucose dose), 15, 30, 45, 60 and 120 minutes after glucose administration.
The trachea was exposed by a midline incision from the base of the throat to just above the clavicle. […] The hemodynamic parameters were then recorded in close-chest mode. […]

We go through one compound from patent US20230381148A1, “HDAC6 INHIBITORS FOR TREATMENT OF METABOLIC DISEASE AND HFPEF” (Tenaya Therapeutics, Inc., priority 2021, published 2023).

Structures are written as SMILES.

For the compound `OC[C@H]1O[C@@H](c2ccc(Cl)c(Cc3ccc(O[C@H]4CCOC4)cc3)c2)[C@H](O)[C@@H](O)[C@@H]1O` [Empagliflozin, empagliflozin], the E/A ratio result is reported as “decreased”, the “E/e′ ratio” value is listed as “decreased” and the end diastolic pressure result is “reduced end diastolic pressure”.
